According to US6228868A, “Oxazoline antiproliferative agents” (Abbott Laboratories, priority 1999, dated 2001):

Assays:
HCT-15 cells = assay: 48-hour cellular proliferation assay, sulforhodamine stain (human colon adenocarcinoma, MDR positive); format: cell-based; details: for HCT-15 (% Inhibition at 10^-4 M) / inhibition at 100 µM: 10^-4 M
Description: (§1) Compounds of this invention were tested in a 48-hour cellular proliferation assay that uses human colon adenocarcinoma, MDR positive (HCT-15) cells, and human lung large cell carcinoma, MDR negative (NCI-H460) cells, in the 96-well microtitre format described in Skehan P., et al. New Colorimetric Cytotoxicity Assay for Anticancer Drug Screening. 1990, J. Natl. Cancer Inst. 82:1107-1112, hereby incorporated by reference. Briefly, the wells of a microtitre plate were charged sequentially with cultured cells and compounds of the invention (1.0×10^-4 to 1.0×10^-11 M in 10% DMSO prepared by dissolving compounds of the invention in DMSO and adding 11 μL of the DMSO solution to 100 μL of culture medium for a final DMSO concentration of 10%). Two of the following controls were also present in each microtitre plate: a solvent (DMSO) control without drug that yielded a 0% inhibition level and a trichloroacetic acid-treated well that yielded a 100% inhibition level. The cells were grown in culture (37° C., 5% CO2 atmosphere) for 48 hours then fixed by the addition of trichloroacetic acid. The wells were stained with sulforhodamine, washed with 1% acetic acid, and treated with 0.01 M tris buffer (100 μL) to solubilize the adherent dye. The absorbance of the dye solution was measured with a Molecular Devices SpectraMax340 plate reader. Percent inhibition and Inhibitory Concentrations (IC50) values were obtained by calculating the proportional response of the experimental values to the absorbance values of the controls.

NCI-H460 cells = assay: 48-hour cellular proliferation assay, sulforhodamine stain (human lung large cell carcinoma, MDR negative); format: cell-based; details: for NCI-460 (% Inhibition at 10^-4 M) / inhibition at 100 µM: NCI-460 cells, 10^-4 M; for IC50: NCI-H460 cells
Description: as §1

[1] = Homo sapiens, values given in μM

Compound | inhibition at 100 µM (HCT-15 cells; Homo sapiens) [%] | inhibition at 100 µM (NCI-H460 cells; Homo sapiens) [%] | other results
2-(3-hydroxy-4-methoxyphenyl)-4-dimethyl-5-(3,4,5-trimethoxyphenyl)-Δ2,3-oxazoline [Example 13] |  |  | HCT-15 (% Inhibition at 10^-4 M) (HCT-15 cells): 100%; NCI-460 (% Inhibition at 10^-4 M) (NCI-H460 cells): 100%
COc1cc(C2CN=C(c3ccc(N(C)C)cc3)O2)cc(OC)c1OC (centres unmarked) [Example 1, 2-(4-dimethylaminophenyl)-5-(3,4,5-trimethoxyphenyl)-Δ2,3-oxazoline] | 100 | 100 | 
COc1ccc(C2=NCC(c3cc(OC)c(OC)c(OC)c3)O2)cc1O (centres unmarked) [Example 2, 2-(3-hydroxy-4-methoxyphenyl)-5-(3,4,5-trimethoxyphenyl)-Δ2,3-oxazoline] | 100 | 100 | 
COc1ccc(C2=NCC(c3cc(OC)c(OC)c(OC)c3)O2)cc1 (centres unmarked) [Example 3, 2-(4-methoxyphenyl)-5-(3,4,5-trimethoxyphenyl)-Δ2,3-oxazoline] | 100 | 100 | 
COc1cc(OC)cc(C2=NCC(c3cc(OC)c(OC)c(OC)c3)O2)c1 (centres unmarked) [Example 4, 2-(3,5-dimethoxyphenyl)-5-(3,4,5-trimethoxyphenyl)-Δ2,3-oxazoline] | 100 | 100 | 
COc1cc(C2CN=C(c3ccc4[nH]cc(C(C)=O)c4c3)O2)cc(OC)c1OC (centres unmarked) [Example 5, 2-(3-acetylindol-5-yl)-5-(3,4,5-trimethoxyphenyl)-Δ2,3-oxazoline] |  |  | HCT-15 (% Inhibition at 10^-4 M) (HCT-15 cells): 100%; NCI-460 (% Inhibition at 10^-4 M) (NCI-H460 cells): 100%
COc1cc(C2CN=C(c3ccc4c(ccn4C)c3)O2)cc(OC)c1OC (centres unmarked) [Example 6, 2-(1-methylindol-5-yl)-5-(3,4,5-trimethoxyphenyl)-Δ2,3-oxazoline] | 100 | 100 | 
COc1cc(C2CN=C(c3c[nH]c4ccccc34)O2)cc(OC)c1OC (centres unmarked) [Example 7, 2-(indol-3-yl)-5-(3,4,5-trimethoxyphenyl)-Δ2,3-oxazoline] | 100 | 100 | 
COc1cc(C2CN=C(c3cc4ccccc4[nH]3)O2)cc(OC)c1OC (centres unmarked) [Example 8, 2-(indol-2-yl)-5-(3,4,5-trimethoxyphenyl)-Δ2,3-oxazoline] | 100 | 100 | 
COCn1ccc2cc(C3=NCC(c4cc(OC)c(OC)c(OC)c4)O3)ccc21 (centres unmarked) [Example 9, 2-(1-methoxymethylindol-5-yl)-5-(3,4,5-trimethoxyphenyl)-Δ2,3-oxazoline] | 100 | 100 | 
COc1cc(C2=NCC(c3cc(OC)c(OC)c(OC)c3)O2)ccc1N (centres unmarked) [Example 10, 2-(4-amino-3-methoxyphenyl)-5-(3,4,5-trimethoxyphenyl)-Δ2,3-oxazoline] | 100 | 100 | 
COc1cc(C2CN=C(c3ccc4[nH]ccc4c3)O2)cc(OC)c1OC (centres unmarked) [Example 11, 2-(indol-5-yl)-5-(3,4,5-trimethoxyphenyl)-Δ2,3-oxazoline] | 100 | 100 | 
COc1cc(C2CN=C(c3ccc(N)c(C)c3)O2)cc(OC)c1OC (centres unmarked) [Example 12, 2-(4-amino-3-methylphenyl)-5-(3,4,5-trimethoxyphenyl)-Δ2,3-oxazoline] | 100 | 100 | 
COc1cc(C2CN=C(c3ccc4c(c3)CCCN4C)O2)cc(OC)c1OC (centres unmarked) [Example 14, 2-(N-methyl-tetrahydroquinol-6-yl)-5-(3,4,5-trimethoxyphenyl)-Δ2,3-oxazoline] | 100 | 100 | 
COc1cc(C2CN=C(C3CC3C)O2)cc(OC)c1OC (centres unmarked) [Example 15, 2-(2-methyl-cyclopropyl)-5-(3,4,5-trimethoxyphenyl)-Δ2,3-oxazoline] | 50 | 50 | 
CCOc1ccc(C2=NCC(c3cc(OC)c(OC)c(OC)c3)O2)cc1 (centres unmarked) [Example 16, 2-(4-ethoxyphenyl)-5-(3,4,5-trimethoxyphenyl)-Δ2,3-oxazoline] | 96.2 | 90.7 | 
COc1ccc(C2=NCC(c3cc(OC)c(OC)c(OC)c3)O2)cc1OC (centres unmarked) [Example 17, 2-(3,4-dimethoxyphenyl)-5-(3,4,5-trimethoxyphenyl)-Δ2,3-oxazoline] | 91 | 85.8 | 
COc1cc(C2=NCC(c3cc(OC)c(OC)c(OC)c3)O2)ccc1OCc1ccccc1 (centres unmarked) [Example 18, 2-(4-benzyloxy-3-methoxyphenyl)-5-(3,4,5-trimethoxyphenyl)-Δ2,3-oxazoline] | 96 | 92.2 | 
COc1cc(C2CN=C(c3cc(Br)cc4c3OCC4)O2)cc(OC)c1OC (centres unmarked) [Example 19, 2-(2,3-dihydro-5-bromo-7-benzofuranyl)-5-(3,4,5-trimethoxyphenyl)-Δ2,3-oxazoline] | 98.9 | 100 | 

Compound | inhibition at 100 µM (HCT-15 cells; Homo sapiens) [%] | inhibition at 100 µM (NCI-H460 cells; Homo sapiens) [%] | other results
COc1ccc(C2=NCC(c3cc(OC)c(OC)c(OC)c3)O2)cc1OC(C)=O (centres unmarked) [Example 20, 2-(3-acetoxy-4-methoxyphenyl)-5-(3,4,5-trimethoxyphenyl)-Δ2,3-oxazoline] | 91 | 100 | 
COc1cc(C2CN=C(c3ccc4c(c3)CCN4C)O2)cc(OC)c1OC (centres unmarked) [Example 21, 2-(1-methyl-2,3-dihydro-indol-5-yl)-5-(3,4,5-trimethoxyphenyl)-Δ2,3-oxazoline] | 100 | 92.4 | 
COc1cc(C2CN=C(c3ccc4cc[nH]c4c3)O2)cc(OC)c1OC (centres unmarked) [Example 27, 2-(6-indolyl)-5-(3,4,5-trimethoxyphenyl)-Δ2,3-oxazoline] |  |  | IC50 (HCT-15 cells; Homo sapiens, values in nM): 83 nM; IC50 (NCI-H460 cells; Homo sapiens, values in nM): 170 nM
COc1cc(C2CN=C(c3ccc4ccn(C)c4c3)O2)cc(OC)c1OC (centres unmarked) [Example 28, 2-(1-methylindol-6-yl)-5-(3 4.5-trimethoxyphenyl)-Δ2,3-oxazoline] |  |  | IC50 (HCT-15 cells; Homo sapiens, values in nM): 210 nM; IC50 (NCI-H460 cells; Homo sapiens, values in nM): 390 nM
COc1cc(C2CN=C(c3cccc4[nH]ccc34)O2)cc(OC)c1OC (centres unmarked) [Example 29, 2-(4-indolyl)-5-(3,4,5-trimethoxyphenyl)-Δ2,3-oxazoline] |  |  | IC50 (HCT-15 cells; Homo sapiens, values in nM): 39 nM; IC50 (NCI-H460 cells; Homo sapiens, values in nM): 60 nM
COc1cc(C2CN=C(c3cccc4c3ccn4C)O2)cc(OC)c1OC (centres unmarked) [Example 30, 2-(1-methylindol-4-yl)-5-(3,4,5-trimethoxyphenyl)-Δ2,3-oxazoline] |  |  | IC50 (HCT-15 cells; Homo sapiens, values in nM): 24 nM; IC50 (NCI-H460 cells; Homo sapiens, values in nM): 28 nM
COc1cc(C2CN=C(c3cccc4cc[nH]c34)O2)cc(OC)c1OC (centres unmarked) [Example 31, 2-(7-indolyl)-5-(3,4,5-trimethoxyphenyl)-Δ2,3-oxazoline] |  |  | IC50 (HCT-15 cells; Homo sapiens, values in nM): 580 nM; IC50 (NCI-H460 cells; Homo sapiens, values in nM): 470 nM
COc1cc(C2CN=C(c3cccc4ccn(C)c34)O2)cc(OC)c1OC (centres unmarked) [Example 32, 2-(1-methylindol-7-yl)-5-(3,4,5-trimethoxyphenyl)-Δ2,3-oxazoline] |  |  | IC50 (HCT-15 cells; [1]): 16000 nM
COc1cc(C2CN=C(c3cn(C)c4ccccc34)O2)cc(OC)c1OC (centres unmarked) [Example 33, 2-(1-methylindol-3-yl)-5-(3,4,5-trimethoxyphenyl)-Δ2,3-oxazoline] |  |  | IC50 (HCT-15 cells; Homo sapiens, values in nM): 32 nM; IC50 (NCI-H460 cells; Homo sapiens, values in nM): 120 nM
COc1cc(C2CN=C(c3cc4ccccc4n3C)O2)cc(OC)c1OC (centres unmarked) [Example 34, 2-(1-methyl-indol-2-yl)-5-(3,4,5-trimethoxyphenyl)-Δ2,3-oxazoline] |  |  | IC50 (HCT-15 cells; Homo sapiens, values in nM): 650 nM; IC50 (NCI-H460 cells; Homo sapiens, values in nM): 1500 nM
COc1cc(C2CN=C(c3ccc4ncccc4c3)O2)cc(OC)c1OC (centres unmarked) [Example 35, 2-(6-guinolinvl)-5-(3,4,5-trimethoxyphenyl)-Δ2,3-oxazoline] |  |  | IC50 (HCT-15 cells; [1]): 2400 nM; IC50 (NCI-H460 cells; [1]): 3200 nM
COc1cc(C2CN=C(c3ccnc4ccccc34)O2)cc(OC)c1OC (centres unmarked) [Example 37, 2-(4-quinolinyl)-5-(3,4,5-trimethoxyphenyl)-Δ2,3-oxazoline] |  |  | IC50 (HCT-15 cells; [1]): 44000 nM; IC50 (NCI-H460 cells; [1]): 37000 nM
COc1cc(C2CN=C(c3nccc4ccccc34)O2)cc(OC)c1OC (centres unmarked) [Example 38, 2-(1-isoquinolinyl)-5-(3,4,5-trimethoxyphenyl)-Δ2,3-oxazoline] |  |  | IC50 (HCT-15 cells; [1]): 63000 nM; IC50 (NCI-H460 cells; [1]): 78000 nM
COc1ccc(C2=NCC(c3cc(OC)c(OC)c(OC)c3)O2)cc1N (centres unmarked) [Example 39, 2-(3-amino-4-methoxyphenyl)-5-(3,4,5-trimethoxyphenyl)-Δ2,3-oxazoline] |  |  | IC50 (HCT-15 cells; Homo sapiens, values in nM): 33 nM; IC50 (NCI-H460 cells; Homo sapiens, values in nM): 68 nM
COc1cc(C2CN=C(c3ccc(C)c(N)c3)O2)cc(OC)c1OC (centres unmarked) [Example 40, 2-(3-amino-4-methyphenyl)-5-(3,4,5-trimethoxyphenyl)-Δ2,3-oxazoline] |  |  | IC50 (HCT-15 cells; Homo sapiens, values in nM): 62 nM; IC50 (NCI-H460 cells; Homo sapiens, values in nM): 82 nM
COc1ccc(C2=NCC(c3cc(OC)c(OC)c(OC)c3)O2)cc1NC(=O)C(C)NC(=O)C(C)N (centres unmarked) [Example 41] |  |  | IC50 (HCT-15 cells; values in nM): 520 nM; IC50 (NCI-H460 cells; values in nM): 590 nM
COc1ccc(C2=NCC(c3cc(OC)c(OC)c(OC)c3)O2)cc1NC(=O)[C@@H](N)CO (some centres unmarked) [Example 44] |  |  | IC50 (HCT-15 cells; [1]): 6600 nM; IC50 (NCI-H460 cells; [1]): 3800 nM
COc1cc(C2CN=C(c3ccn(C)c(=O)c3)O2)cc(OC)c1OC (centres unmarked) [Example 46, 2-(1-methyl-1H-pyridin-2-on-4-yl)-5-(3,4,5-trimethoxyphenyl)-Δ2,3-oxazoline] |  |  | IC50 (HCT-15 cells; Homo sapiens, values in nM): 440 nM; IC50 (NCI-H460 cells; Homo sapiens, values in nM): 470 nM
COc1cc(C2CN=C(c3ccc4[nH]cc(C(=O)C(F)(F)F)c4c3)O2)cc(OC)c1OC (centres unmarked) [Example 76, 2-(3-trifluoroacetyl-5-indolyl)-5-(3,4,5-trimethoxyphenl)-Δ2,3-oxazoline] |  |  | IC50 (HCT-15 cells; [1]): 1300 nM
